According to patent publication US4163780A (Kirin-Seagram Limited, priority 1977, dated 1979):

System: influenza A2 -Kumamoto/Y5 (H2 N2) virus
Format: in vivo, influenza virus; DDI mice
Settings: Virazole 50 mg/kg, intraperitoneal, 15 times

SMILES: NC(=O)c1ncn([C@@H]2O[C@H](CO)[C@@H](O)[C@H]2O)n1 [Virazole]
- Average of survival days: > 16.9 days
- Survival percentage: 30%
